Experimental data reported in a melting point compilation (Tetko et al.).

| Compound | melting point |
| --- | --- |
| Cc1nc(NC(=O)NS(=O)(=O)c2cccs2)nc(Cl)c1C | 201 to 203 °C |
| N#Cc1ccc2c(c1)COC2=O | 201 to 205 °C |
| CCCCCCCCCCS(=O)(=O)Cl | 34 °C |
| CCOC(=O)Cc1ccc(N)cc1 | 48 to 50 °C |
| FC(F)(F)c1cc(Cl)c(I)c(Br)c1 | 29 to 31 °C |
| COC(=O)c1cccc(Cl)c1 | 21 °C |
| Brc1ccc(N(c2ccc(Br)cc2)c2ccc(Br)cc2)cc1 | 142 °C |
| CC(C)CN(CC(C)C)CC(C)C | -21.8 °C |
| Cc1nc(-c2ccccc2)no1 | 35 °C |
| O=C(O)Cn1ccnc1 | 258 to 260 °C |
| Cc1nc(-c2cc(C(=O)Cl)no2)cs1 | 89 to 91 °C |
| CCCCCCCCC(=O)OCCCC | -38 °C |
| O=[N+]([O-])c1ccc2ccccc2c1 | 79 °C |
| N#Cc1ccc(-c2cccs2)s1 | 100 °C |
| CCCCOc1ccc(CC(=O)NO)cc1 | 153 °C |
| O=Cc1csc2ccc(Br)cc12 | 106 to 107 °C |
| Nc1cccc2c(O)nnc(O)c12 | 330 °C |
| NNC(=O)C(N)=O | 216 to 218 °C |
| Cc1cc(CC(C)CC(C)(C)C)n(O)c(=O)c1 (centres undefined) | 108 °C |
| CC1NC(C(=O)O)Cc2c1[nH]c1ccccc21 (centres undefined) | 243 to 245 °C |
| CN1CCCN(c2ccc(CO)cc2)CC1 | 97 °C |
| O=C(Cl)c1cccnc1Sc1ccccc1 | 71 to 74 °C |
| CC(C)NCC(O)c1cc(O)cc(O)c1 (centres undefined) | 100 °C |
| Cc1ccc(O)c(C(O)Cc2ccccc2)c1 (centres undefined) | 83 °C |
| COc1cccc(/N=C(\C)c2c(O)c3ccccc3n(-c3ccccc3)c2=O)c1 | 178 to 179 °C |
| Cc1nc(O)ccc1[N+](=O)[O-] | 235 °C |

| Compound | melting point |
| --- | --- |
| O=C(O)c1ccc(Oc2cccnc2)o1 | 150 to 153 °C |
| COc1ccc(C(=O)c2cccc(Br)c2)cc1OC | 97 °C |
| CCCCCCCOC(=O)CCCCC | -34.4 °C |
| O=C(CCl)OC(=O)CCl | 57.5 °C |
| COc1cccc(-c2cccc(OC)c2)c1 | 36 °C |
| CC(C)C(NC(=O)C(C)(C)Br)C(C)C | 80 to 82 °C |
| CCS(=O)(=O)CCn1c([N+](=O)[O-])cnc1C | 128 °C |
| CN(C)CCCN1c2ccccc2S(=O)c2ccc(Cl)cc21 (centres undefined) | 115 °C |
| CC(C)NC(=O)c1cc(F)c(Cl)nc1Cl | 159 to 161 °C |
| CC1=CCC(=O)Nc2c1cnn2-c1ccc(Cl)cc1 | 177 to 178 °C |
| C=CCN1CCCC1CNC(=O)c1cc(S(=O)(=O)NC)c(N)cc1OC (centres undefined) | 169 °C |
| CC(=O)Oc1c(-c2ccccc2)n(C(C)=O)c2cc([N+](=O)[O-])ccc12 | 178 °C |
| Cc1ccnc2c1ccc1c(C)ccnc12 | 194 °C |
| Nc1cn[nH]c1 | 81 °C |
| O=C(c1ccc2ccccc2c1)C(O)c1ccccc1 (centres undefined) | 152 °C |
| COc1cccc(C=CC(=O)O)c1 | 116 to 119 °C |
| C1COCCOCCNCCOCCOCCN1 | 111 to 115 °C |
| C1COCCOCCOCCN1 | 53 to 55 °C |
| CCOC(=O)C1=NN(c2ccccc2)C(=O)C1=CC1C(=O)N(c2ccccc2)N=C1C(=O)OCC (centres undefined) | 179 to 180 °C |
| OCCN1CCN(CCCN2c3ccccc3C=Cc3ccccc32)CC1 | 100 °C |
| CC(=Cc1ccc(F)cc1)[N+](=O)[O-] | 64 to 67 °C |
| COC(=O)C1=C(C)NC(C)=C(C(=O)OC)C1c1ccco1 | 186 °C |
| CC(O)Cn1c(=O)c2c(ncn2C)n(C)c1=O (centres undefined) | 141 °C |
| COc1cc(NC(=S)NN)cc(OC)c1OC | 178 to 179 °C |
| O=C1NC(=O)C(=Cc2ccc(-c3ccccc3)o2)C(=O)N1 | 270 °C |
| COc1ccccc1-c1ccc(C=CC(=O)c2ccco2)o1 | 96 to 98 °C |

| Compound | melting point |
| --- | --- |
| CCCN(CCC)C(=O)COC(=O)c1ccccc1 | 20 °C |
| Cc1cc(C)c2c(=O)n(-c3cccc(C(F)(F)F)c3)c(=O)[nH]c2n1 | 264 to 266 °C |
| OCCCCC#CC#CCCCCO | 50 °C |
| N#Cc1ccc(Cn2cccn2)cc1 | 80 to 82 °C |
| Ic1cccc2nsnc12 | 96 to 97 °C |
| Cc1cc(C(=O)O)ccc1F | 167 °C |
| COc1ccc(C(=O)C(C#N)=C(SC)SC)cc1 | 60 to 62 °C |
| OCCN1CCN(c2ncc(Cl)cc2C(F)(F)F)CC1 | 58 to 59 °C |
| O=C(Cl)c1c(Cl)cccc1Cl | 18 °C |
| CNC(=NCCSCc1nc[nH]c1C)NC#N | 141 °C |
| C/C(=N\NC(N)=O)C1CC2(C)CCC1C2(C)C (centres undefined) | 236 °C |
| O=C(Nc1ccc(Cl)cc1C(O)c1ccccc1)c1ccncc1 (centres undefined) | 211 °C |
| Cc1ccc(C(=O)/C=C/c2ccc(-c3ccc(Cl)cc3)o2)o1 | 171 °C |
| O=C(O)COc1cccc([N+](=O)[O-])c1 | 156 to 161 °C |
| CC1(C)CC(=O)C(=NNc2cccc([N+](=O)[O-])c2)C(=O)C1 | 186 °C |
| NC(=O)C1CCN(C(=O)OCc2ccccc2)CC1 | 130 to 132 °C |
| CCCCCC(C)CO (centres undefined) | -112 °C |
| Cc1[nH]c2c([N+](=O)[O-])cccc2c1C | 160 to 165 °C |
| C=CC1CN2CCC1CC2C(O)c1ccnc2ccc(O)cc12 (centres undefined) | 202 °C |
| CC(=O)Oc1ccccc1C(=O)OCC(=O)N(C(C)C)C(C)C | 108 °C |
| O=C(O)c1c(Cl)ccc2cc(Cl)cnc12 | 274 °C |
| O=[N+]([O-])c1cc(C(F)(F)F)ccc1Oc1ccccc1Br | 58 to 62 °C |
| CCCCCCl | -60 °C |
| c1ccc2c(-c3nnc(-c4cccc5ccccc45)o3)cccc2c1 | 177 °C |
| CC1(O)Cc2cccc(Cl)c21 (centres undefined) | 94 °C |
| Nc1cc2ccccc2c2ccccc12 | 138 °C |

| Compound | melting point |
| --- | --- |
| O=C(O)C=Cc1ccc(Cl)cc1Cl | 245 to 248 °C |
| CN1CCNC(=O)CCSCCC1=O | 185 to 187 °C |
| CCCCCCCCCCCS | -3 °C |
| CCOC(=O)c1nn(-c2ccc(C)cc2)c(C)c1C(=O)C1=NOC2C(=O)N(c3ccccc3C)C(=O)C12 (centres undefined) | 200 °C |
| N#CCCN1CCN(CCC#N)CC1 | 65 °C |
| Nc1cccc([N+](=O)[O-])c1[N+](=O)[O-] | 122 °C |
| OCc1ccc(-n2ccnc2)cc1 | 87 to 89 °C |
| O=[N+]([O-])c1cc(F)c(F)cc1F | -11 °C |
| Br/C(=C(/Br)c1ccccc1)c1ccccc1 | 228 °C |
| C=CCCCCCCCCCCCCCCCCCCCC | 38 °C |
| CC(=O)c1ccc(Cl)c([N+](=O)[O-])c1 | 98 °C |
| Brc1cccc(Br)n1 | 119 °C |
| COC(=O)c1cnc(Cl)nc1 | 76 to 80 °C |
| O=C(O)c1cc(O)c2ccccc2n1 | 282 °C |
| O=C1c2ccc(O)cc2C(=O)c2cc(O)ccc21 | 354 °C |
| O=S(=O)(Cl)Cc1ccc(Cl)c(Cl)c1 | 65 to 68 °C |
| N#Cc1ccc(C(Cl)C(Cl)c2ccc(C(Cl)C(Cl)c3ccc(C#N)cc3[N+](=O)[O-])cc2)c([N+](=O)[O-])c1 (centres undefined) | 278 °C |
| N[C@@H](c1ccccc1)c1c(O)ccc2ccccc12 | 133 to 137 °C |
| CNC(=NO)c1cc(C(C)(C)C)c(O)c(C(C)(C)C)c1 | 200 to 201 °C |
| CCCCCCC(O)CO (centres undefined) | 36 to 38 °C |
| O=C(c1ccco1)c1noc(-c2ccc([N+](=O)[O-])cc2)c1S(=O)(=O)c1ccccc1 | 138 °C |
| CC(OC/C(=N\NC(N)=O)c1ccccc1)=C(C#N)c1ccccc1 | 156 to 158 °C |
| Cc1nc(-c2cnccn2)sc1C(=O)CBr | 100 °C |
| O=c1c2ccccc2nc2n1CCc1c-2[nH]c2ccccc12 | 260 °C |
| c1ccc(-c2nc3ccccc3[nH]2)nc1 | 223 °C |
| CCCCCCCCCCCCCCCCOCCCCCCCCCCCCCCCC | 55 °C |

| Compound | melting point |
| --- | --- |
| Cc1ccc2sc(C=O)cc2c1 | 98 to 99 °C |
| CC1OC(Oc2c(-c3ccc(O)c(O)c3)oc3cc(O)cc(O)c3c2=O)C(O)C(O)C1O (centres undefined) | 170 °C |
| Cc1ccccc1OP(=O)(Oc1ccccc1C)Oc1ccccc1C | -25 °C |
| NCc1ccc(N2CCOCC2)cc1 | 50 °C |
| OCc1cc(C(O)CNCCCCCCOCCCCc2ccccc2)ccc1O (centres undefined) | 75.8 °C |
| Brc1ccc(Oc2c(Br)cccc2Br)c(Br)c1 | 96 to 97 °C |
| Cn1c2ccccc2c(=O)c2ccccc21 | 204 to 207 °C |
| CCCC(=O)OC1(C(=O)CCl)C(C)CC2C3CCC4=CC(=O)C=CC4(C)C3(F)C(=O)CC21C (centres undefined) | 95 °C |
| CC1(C)C(N)=[N+]([O-])C(c2ccccc2)N1O (centres undefined) | 208 to 210 °C |
| CC(C)(O)C12CC3CC(CC(C3)C1)C2 | 75 °C |
| Nc1ccc(C(=O)O)c(Cl)c1 | 210 to 215 °C |
| Cc1cc(C=O)no1 | 31 to 33 °C |
| Cc1c(C#N)[nH]c2ccccc12 | 102 to 104 °C |
| FC(F)(F)C(F)(F)C(F)(F)C(F)(F)C(F)(F)C(F)(F)C(F)(F)C(F)(F)C(F)(F)C(F)(F)CCI | 82 to 83 °C |
| N#Cc1ccc(C#N)c(OC(F)(F)F)c1 | 79 to 81 °C |
| CC12CCC(C(C(O)c3ccccc3)OC1=O)C2(C)C (centres undefined) | 156 °C |
| O=S(=O)(Cl)c1cc(OCC(F)(F)F)ccc1OCC(F)(F)F | 47 to 50 °C |
| COc1ccc(CC2NCC(O)C2OC(C)=O)cc1 (centres undefined) | 141 °C |
| NNC(=O)C1CCCCC1 | 153 to 155 °C |
| CC(C)(O)CCc1ccccc1 | 24.5 °C |
| CCC(=O)OC1CCC2C3CCC4CC(=O)C(C)CC4(C)C3CCC12C (centres undefined) | 128 °C |
| C#CCCCCN1C(=O)c2ccccc2C1=O | 70 °C |
| NNc1cccc2ccccc12 | 117 °C |
| O=Cc1ccc(C(=O)O)s1 | 169 °C |
| CC12CCCCC1CCC1C2CCC2(C)C1CCC2(O)C#CCl (centres undefined) | 163 °C |
